Reference: PubChem BioAssay AID1996
≈ marks a conversion by molar mass, not a printed value.

Settings: buffer; pH 7.4; 200.0 µM

Structure (SMILES) | solubility kinetic
CCCCN(C(=O)C1CC(=O)N(c2ccc3c(c2)OCCO3)C1)c1c(N)n(CCC)c(=O)[nH]c1=O (stereo not given) | > 0.0728 mg/mL
COc1ccc(NS(=O)(=O)c2cc(NC(=O)c3ccc(S(=O)(=O)N(C)C)cc3)ccc2N2CCOCC2)cc1 | 0.0032 mg/mL (≈ 5.57 µM)
Cc1cc(NS(=O)(=O)c2ccc(NC(=O)c3ccccc3F)cc2)no1 | > 0.0563 mg/mL
CN(CCC(=O)Nc1ccc(Cl)cc1)Cc1ccccc1.Cl | > 0.0509 mg/mL
CC(C)(C)NC(=O)NC(=O)CN1CCCCC1 | > 0.0362 mg/mL
CCOC(=O)N1CCN(C(=O)c2cc3cc(F)ccc3[nH]2)CC1 | 0.0405 mg/mL (≈ 127 µM)
Cn1cnnc1SCC(=O)NC1CCCc2ccccc21 (stereo not given) | > 0.0454 mg/mL
Cc1cccc(C(=O)N2CCCC(c3nc(-c4ccc(F)cc4)no3)C2)c1 (stereo not given) | 0.0124 mg/mL (≈ 33.9 µM)
CP(=O)(O)CN1CCCCC1 | 0.0249 mg/mL (≈ 141 µM)
Cc1ccc(CNC(=O)/C=C/C(=O)O)cc1 | > 0.0329 mg/mL
CC1CCCC(C)N1C(=O)CSc1nc2ccccc2c(=O)[nH]1 (stereo not given) | 0.0276 mg/mL (≈ 83.3 µM)
CSc1cccc(NC(=S)Nc2cc(C)ccc2C)c1 | 0.0225 mg/mL (≈ 74.4 µM)
Cc1nnc(NC(=O)CSc2nnc(C)c(=O)n2N)s1 | > 0.047 mg/mL
CCC1CN(C(=O)NCc2ccc(C)cc2)c2cc(C)ccc2O1 (stereo not given) | 0.0005 mg/mL (≈ 1.54 µM)
O=[N+]([O-])c1ccccc1S(=O)(=O)N(CC1CO1)c1ccccc1 (stereo not given) | > 0.0502 mg/mL
Cc1ccc(C(=O)NCC(=O)NC23CC4CC(CC(C4)C2)C3)cc1 | 0.0042 mg/mL (≈ 12.9 µM)
NC(=O)C1CCN(C(=O)/C(=C/c2ccco2)NC(=O)c2ccccc2)CC1 | > 0.0551 mg/mL
COc1ccc(S(N)(=O)=O)cc1C(=O)OCC1CCCCC1 | 0.0481 mg/mL (≈ 147 µM)
COc1ccc(OC)c2c(=O)cc(C(=O)O)[nH]c12 | 0.0146 mg/mL (≈ 58.6 µM)
Cc1ccc(C(=O)Nc2cc3[nH]c(=O)oc3cc2C)cc1 | 0.0048 mg/mL (≈ 17 µM)

Structure (SMILES) | solubility kinetic
S=C(NCCCc1ccccc1)Nc1ccc(Br)cc1 | 0.0045 mg/mL (≈ 12.9 µM)
O=C(O)c1ccc(CNC(=O)C23CC4CC(CC(C4)C2)C3)cc1 | > 0.047 mg/mL
COc1ccc(O)c(/C=N/c2nc3ccccc3n2C)c1 | 0.015 mg/mL (≈ 53.3 µM)
CCCCOc1ccc(Cc2c(O)nc(SC)[nH]c2=O)cc1 | 0.02 mg/mL (≈ 62.4 µM)
Cc1ccc(C(=O)CCc2ccc(N)cc2)cc1 | 0.0349 mg/mL (≈ 146 µM)
O=[N+]([O-])c1ccccc1/C=C/c1ccc2ccccc2n1 | < 0.0003 mg/mL
Cc1cccc2cc(CNC3CCCC3)c(Cl)nc12 | > 0.0412 mg/mL
CCC1(CC)NC(=O)N(CC(=O)Nc2ccc(OCc3ccccc3)cc2)C1=O | 0.0089 mg/mL (≈ 22.5 µM)
Cc1ccc(C(=O)N2CC=C(c3ccccc3)CC2)o1 | 0.0391 mg/mL (≈ 146 µM)
Cc1ccc(-c2ccc(OC(=O)c3ccc(=O)[nH]c3)c(C)c2)cc1 | < 0.0007 mg/mL
CCCCNC(=O)c1cc2cc(CC)ccc2[nH]1 | 0.0019 mg/mL (≈ 7.78 µM)
CCC(Oc1ccccc1OC)C(=O)Nc1ccc2c(c1)OCO2 (stereo not given) | 0.0263 mg/mL (≈ 79.9 µM)
CCOc1ccccc1C(=S)NC1CCCCC1 | 0.0145 mg/mL (≈ 55 µM)
c1ccc(CNc2ncnc3sccc23)cc1 | 0.0319 mg/mL (≈ 132 µM)
CN1CCN(c2ccc(C(=O)NC3CCCCC3)cc2[N+](=O)[O-])CC1 | 0.0497 mg/mL (≈ 143 µM)
CCCCCc1cc(O)c2c3c(c(=O)oc2c1)CN(C)CC3 | < 0.0006 mg/mL
CC1CCC2(CC1)NC(=O)N(CC(=O)NCc1ccc(Cl)cc1)C2=O (stereo not given) | 0.0063 mg/mL (≈ 17.3 µM)
Cn1cnc([N+](=O)[O-])c1SCC(O)CCl (stereo not given) | 0.0365 mg/mL (≈ 145 µM)
O=C(O)c1ccc(N2C(=O)CSC2=S)cc1 | > 0.038 mg/mL
CCOC(=O)c1sc(=S)n(-c2ccc(C)cc2)c1N | 0.0014 mg/mL (≈ 4.76 µM)

Structure (SMILES) | solubility kinetic
Cc1ccc(Cl)c(OCC(=O)Nc2ccccc2C(=O)NC2CC2)c1 | 0.0059 mg/mL (≈ 16.4 µM)
O=C(COc1ccccc1Cl)NCCCNC(=O)c1cnccn1 | 0.0515 mg/mL (≈ 148 µM)
CNS(=O)(=O)c1cccc(C(=O)OCC(=O)NC2CCCC2)c1 | > 0.0511 mg/mL
CC(NC(=O)CNC(=O)c1ccco1)c1ccccc1 (stereo not given) | > 0.0408 mg/mL
Cc1ccc(CNC(=O)CCCN2C(=S)NC(C)(C)CC2C)cc1 (stereo not given) | 0.037 mg/mL (≈ 106 µM)
COc1cccc(C(=O)N2CCC(C(=O)N3CCN(C)CC3)CC2)c1 | > 0.0518 mg/mL
CCN(C(=O)CSc1nnc(-c2ccc(OC)cc2)n1C(C)C)C1CCS(=O)(=O)C1 (stereo not given) | > 0.0679 mg/mL
CCCc1cc(C(=O)Nc2cc(OC)ccc2OC)cs1 | 0.0086 mg/mL (≈ 28.2 µM)
COc1ccc(NC(=O)C(=S)NC2CCCCC2)cc1 | < 0.0003 mg/mL
COc1ccc(CNC(=O)CN2C(=O)NC3(CCCCCCC3)C2=O)cc1 | 0.0234 mg/mL (≈ 62.7 µM)
COc1ccccc1C1CCN(Cc2c(C)[nH]c3ccccc23)CC1 | > 0.0502 mg/mL
Clc1ccc(COC(Cn2ccnc2)c2ccc(Cl)cc2Cl)c(Cl)c1.O=[N+]([O-])O (stereo not given) | 0.0263 mg/mL
CSc1ccccc1C(=O)NCCCn1ccnc1 | > 0.0413 mg/mL
CCc1ccc2nc(N3CCN(C(=O)C(C)(C)C)CC3)sc2c1 | 0.002 mg/mL (≈ 6.03 µM)
CCOc1ccccc1NC(=O)C(NC(=O)C1CCC(C)CC1)C(C)C (stereo not given) | 0.0049 mg/mL (≈ 13.6 µM)
O=[N+]([O-])c1ccc(Cl)cc1N1CCCC1 | 0.0025 mg/mL (≈ 11 µM)
Clc1ccc(-c2cn3cc(Cl)ccc3n2)cc1 | < 0.0003 mg/mL
CC1(c2cccc(Br)c2)NC(=O)N(CC(=O)c2ccc3c(c2)OCCO3)C1=O (stereo not given) | 0.0125 mg/mL (≈ 28.1 µM)
O=C(O)C1C2CCC(O2)C1C(=O)Nc1ccccc1Br (stereo not given) | > 0.051 mg/mL
O=S(=O)(c1ccc(F)cc1)N1CCc2ccccc21 | 0.0189 mg/mL (≈ 68.2 µM)
